Test results: patent US20220202964A1, “HEPARANASE COMPOUNDS AND METHODS OF USE” (University of Florida Research Foundation, Incorporated, priority 2019, published 2022)
Several values for one entry are separate records, joined by “and”; a condition that tells them apart may be missing. Equal values may be shown once.

Tests used:
Format in all cases: biochemical
heparanase [1] = molecular target: T1, heparanase (Homo sapiens, UniProt Q9Y251); assay: Kinetics and detection limit of heparanase by Compound 1 (HADP)
T1 sequence (Q9Y251 36-543): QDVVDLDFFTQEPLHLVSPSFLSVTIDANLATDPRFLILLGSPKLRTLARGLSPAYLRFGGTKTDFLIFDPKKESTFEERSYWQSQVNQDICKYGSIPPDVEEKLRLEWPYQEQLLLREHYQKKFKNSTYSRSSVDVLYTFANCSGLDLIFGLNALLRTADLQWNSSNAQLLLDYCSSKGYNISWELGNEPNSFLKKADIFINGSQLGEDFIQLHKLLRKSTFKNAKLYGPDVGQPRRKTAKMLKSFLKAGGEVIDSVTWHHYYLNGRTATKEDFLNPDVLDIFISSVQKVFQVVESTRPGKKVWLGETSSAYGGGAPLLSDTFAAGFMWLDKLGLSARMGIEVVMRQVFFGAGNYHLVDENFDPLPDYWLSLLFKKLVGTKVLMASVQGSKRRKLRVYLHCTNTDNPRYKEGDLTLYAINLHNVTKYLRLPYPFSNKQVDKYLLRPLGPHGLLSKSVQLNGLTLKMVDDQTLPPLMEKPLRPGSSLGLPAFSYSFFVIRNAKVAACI
Method: To a solution of 20 μL, of 50 μM HADP (compound 1) and 160 μL 40 mM NaOAc buffer (pH 5.0) buffers was added 20 μL, heparanase with various concentrations (0-0.1 μg/μL) in 96-well microplate. Then final concentration of heparanase is from 0-0.01 μg/μL. Each concentration was performed in triplicates. Then the fluorescence intensity was recorded on Spectramax M5 Multimode plate reader (Molecular Devices, USA) at each timepoint. λex/em=365 nm/455 nm.
To calculate the detection limit, plot the fluorescence intensity against heparanase concentration and fit a line with linear regression. The detection limit was estimated with the following formula. LOD=3 σ/s, where σ represents standard deviation of fluorescent intensity of blank sample, s is the calculated slope of linear regression equation.
To determine the detection limit of Compound 1 (HADP) probe for heparanse, concentration-dependent studies with various concentrations of heparanse over time were performed with 5 μM 1 (HADP). The concentration increases of heparanse led to higher fluorescent intensities at the same time point due to the expedited cleavage of glyosidic bond, releasing more fluorophores. A good linear relationship was obtained in the heparanse concentration range of 0-0.01 μgμl-1 with an equation of F455 nm=650443[HPA]+12.03 (R^2=0.9968). Based on 3σ/s method, the limit of detection (LOD) of Compound 1 for heparanse was calculated to be 0.35 ng/mL (67 pM), indicating the ultra-sensitivity of Compound 1 (HADP) to detect heparanase activity. The kinetic parameters for the enzymatic cleavage of Compound 1 (HADP) were determined via time-dependent fluorescence intensity in the presence of heparanase and probe 1 (HADP) at different concentration.

heparanase [2] = molecular target: T1, heparanase; assay: HPLC analysis of compounds 1-4 with heparanase; conditions: 5 μM, heparanase 1 μg, 4 hours, 37° C., NaOAc pH 5.0
Method: Heparanase (1 μg, 20 μL) was added to the compounds 1-4 solution (180 μL, 5 μM) in 40 mM NaOAc buffer (pH 5.0) and the mixture was incubated for 4 hours at 37° C. The resulting mixtures were injected into HPLC for analysis. HPLC analysis was performed under the following conditions—mobile phase A: water with 0.1% TFA; B: acetonitrile with 0.1% TFA; 0-20 min: gradient elution, 25-95% B. The trace was monitored by DAD detector at 315 nm.

[3] = Selectivity toward heparanase against interfering biological molecules and enzymes
Method: (§1) 5 μM compound 1 (HADP) was incubated with various biological species at the indicated amount/concentration in 96-well microplate. Cysteine (5 mM), Glutathione (5 mM), H2O2 (100 μM), Esterase, Chondroitinase ABC, Hyaluronidase, Lysozyme, β-Glucuronidase, β-Glucosidase (5 μg each) and heparanase (2 μg). For Chondroitinase ABC and Hyaluronidase, 50 μg was also tested. Each sample was performed in triplicates. Then the microplate was sealed with sealing film and incubated at 37° C. for 4 hours. Fluorescence intensity was recorded on Spectramax M5 Multimode plate reader (Molecular Devices, USA). λex/em=365 nm/455 nm.

heparanase [4] = molecular target: T1, heparanase; assay: Activation of compounds by recombinant heparanase (fluorescence response)
Method: To a solution of 20 μL, of 50 μM compound 1 (HADP) and 160 μL 40 mM NaOAc (pH=5.0) was added 20 μL, 0.1 μg/μL heparanase to obtain 5 μM 1 (HADP) with 2 μg heparanase solution. After incubation at 37° C. for 2 h, the reaction solution was transferred to quartz cuvettes to measure absorbance or fluorescence. Absorbance spectrum scan range from 250 nm to 500 nm (1 nm increment). fluorescence spectrum setting: λex=365 nm, Slit Width 2.5 nm. Emission was record from 400 nm to 600 nm, Slit Width 5 nm. Absorption spectra were recorded on Shimadzu UV-2700 UV-VIS Spectrophotometer. Fluorescence spectra were recorded on Fluorolog TAU-3 Spectrofluorometer with a xenon lamp (Jobin Yvon-Spex, Instruments S. A., Inc.)
Fluorescence micro cells was charged with 20 μL, of 50 μM compound 1 (HADP) and 160 μL 40 mM NaOAc (pH=5.0). Then 20 μL, 0.05 μg/μL heparanase was added to the above solution. Fluorescence spectra were recorded from 0 min to 3 h. fluorescence spectrum setting: λex=365 nm, Slit Width 2.5 nm. Emission was record from 400 nm to 600 nm, Slit Width 5 nm.
To a solution of 20 μL, of 50 μM each compound and 160 μL, 40 mM NaOAc (pH=5.0) was added 20 μL, 0.05 μg/μL heparanase to obtain 5 μM each compound with 1 μg heparanase solution in 96-well microplate. Each compound was performed in triplicate. Then the microplate was sealed with sealing film and incubated at 37° C. Fluorescence intensity was recorded on Spectramax M5 Multimode plate reader (Molecular Devices, USA) at each timepoint. λex/em=365 nm/455 nm.
as §1

- limit of detection (LOD) for heparanase (heparanase [1]; 5 μM probe, 3σ/s method): 0.35 ng/mL and 67 pM
- turnover number (kcat) (heparanase [1]; enzymatic cleavage by heparanase): 0.04 s⁻¹
- Km (heparanase [1]; enzymatic cleavage by heparanase, read-out: Michaelis constant (Km)): 8.3 µM
- cleavage by heparanase (HPLC trace) (heparanase [2]): clean conversion
- selectivity for heparanase over other competitive analytes [3]: excellent selectivity
- fluorescence increase upon addition of other molecules and enzymes ([3]; 5 μM, superphysiological levels, 4 h, 37° C.): no fluorescence increase
- fluorescence response towards heparanase (heparanase [4]; 5 μM compound, 1 μg heparanase, 40 mM NaOAc buffer (pH 5.0), 37° C., λex/em=365 nm/455 nm): significant fluorescence enhancement
- fluorescence enhancement turn-on ratio at 450 nm (heparanase [4]; 5 μM, heparanase 2 μg (0.01 μgμl-1), after 2 hours, NaOAc pH 5.0): up to 756 fold
- fluorescence off-on response to heparanase in selectivity panel (heparanase [4]; 5 μM, heparanase 2 μg, 4 h, 37° C.): largest “off-on” response
- time at which fluorescence reached a plateau (heparanase [4]; HADP 5 μM, heparanase 1 μg): 2.5 h
- time at which the enzymatic reaction was completed after addition of heparanase (heparanase [4]; heparanase 2 μg, 5 μM probe): 40 min
Structure (SMILES): Cc1cc(=O)oc2c(F)c(O[C@@H]3O[C@H](C(=O)O)[C@@H](O[C@H]4O[C@H](CO)[C@@H](O)[C@H](O)[C@H]4NS(=O)(=O)O)[C@H](O)[C@H]3O)c(F)cc12 [Compound 1]
